The numbers were not newly measured in patent US7612172B2, “Nucleic acids and corresponding proteins entitled 282P1G3 useful in treatment and detection of cancer” (Agensys, Inc., priority 2002, dated 2009), which cites them from elsewhere.

The test system of series [1] is LAGE-I tumor specific gene. As to conditions: lymphoblastoid cells.
The next series has as its system T helper lymphocytes. As to conditions: regardless of HLA type.

For the compound `Nc1ncn([C@H]2C[C@H](O)[C@@H](CO)O2)c(=O)n1` [deoxy-azacytidine], the “expression of the LAGE-I tumor specific gene” value in series [1] is given as “induced”. As for aKXVAAWTLKAa, in the series on HLA-DR alleles, the “binding to HLA-DR alleles” value is reported as “bind to most HLA-DR alleles”. The “stimulation of T helper lymphocyte response” value with T helper lymphocytes was “stimulate the response of T helper lymphocytes from most individuals”.
